Reference: BindingDB's records for doi:10.1016/j.bmcl.2005.03.008 (Abbott Laboratories, 2005)

target: T1, Dimer of Gag-Pol polyprotein [489-587] (Human immunodeficiency virus 1, UniProt P12497); assay: Enzyme Inhibition Assay; settings: pH 4.5; 30 °C
T1 construct: 489-587
Protocol: HIV-1 protease inhibition was measured by a fluorescence assay using recombinant HIV-1 protease. […] The percent inhibition of enzyme activity in the presence of inhibitor was determined by comparing inhibition rates with uninhibited control reactions. All IC50 values were determined with a range of inhibitor concentrations using the relation IC50 = (100/ percent inhibition - 1) x inhibitor concentration.

**Q.** How did the IC50 turn out when `Cc1nc(CN2CCN([C@H](C(=O)N[C@@H](Cc3ccccc3)[C@H](O)CN(CC(C)C)S(=O)(=O)c3cccc(CN=O)c3)C(C)C)C2=O)cs1` [(2S)-N-[(2S,3R)-3-hydroxy-4-({3-[(1E)-(hydroxyimino)methyl]benzene}(2-methylpropyl)sulfonamido)-1-phenylbutan-2-yl]-3-methyl-2-{3-[(2-methyl-1,3-thiazol-4-yl)methyl]-2-oxoimidazolidin-1-yl}butanamide] was run?
**A.** 16 nM

**Q.** Which IC50 does the source give for `Cc1nc(CN2CCN([C@H](C(=O)N[C@@H](Cc3ccccc3)[C@H](O)CN(CC(C)C)S(=O)(=O)c3ccc(CO)cc3)C(C)C)C2=O)cs1` [(2S)-N-[(2S,3R)-3-hydroxy-4-{[4-(hydroxymethyl)benzene](2-methylpropyl)sulfonamido}-1-phenylbutan-2-yl]-3-methyl-2-{3-[(2-methyl-1,3-thiazol-4-yl)methyl]-2-oxoimidazolidin-1-yl}butanamide] here?
**A.** 16 nM

**Q.** With `Cc1nc(CN2CCN([C@H](C(=O)N[C@@H](Cc3ccccc3)[C@H](O)CN(CC(C)C)S(=O)(=O)c3ccc(CN=O)cc3)C(C)C)C2=O)cs1` [(2S)-N-[(2S,3R)-3-hydroxy-4-({4-[(1E)-(hydroxyimino)methyl]benzene}(2-methylpropyl)sulfonamido)-1-phenylbutan-2-yl]-3-methyl-2-{3-[(2-methyl-1,3-thiazol-4-yl)methyl]-2-oxoimidazolidin-1-yl}butanamide] as the compound, how does the IC50 read?
**A.** 5 nM

**Q.** How did the IC50 turn out when `CO/N=C/c1ccc(S(=O)(=O)N(CC(C)C)C[C@@H](O)[C@H](Cc2ccccc2)NC(=O)[C@H](C(C)C)N2CCN(Cc3csc(C)n3)C2=O)cc1` [(2S)-N-[(2S,3R)-3-hydroxy-4-({4-[(1E)-(methoxyimino)methyl]benzene}(2-methylpropyl)sulfonamido)-1-phenylbutan-2-yl]-3-methyl-2-{3-[(2-methyl-1,3-thiazol-4-yl)methyl]-2-oxoimidazolidin-1-yl}butanamide] was run?
**A.** 653 nM
